Source: the Biogen ADME set (Fang et al. 2023)
Values after ≈ are worked out from the molar mass of the structure shown.

Conditions: for aqueous solubility: pH 6.8

SMILES	aqueous solubility	MDR1-MDCK efflux ratio	intrinsic clearance, human liver microsomes	intrinsic clearance, rat liver microsomes	fraction unbound, human plasma	fraction unbound, rat plasma
CO[C@@H]1CC[C@@H](N(C)C(=O)COc2c(C)cccc2C)[C@H]1O	–	1.67	12.1 mL/min/kg	162 mL/min/kg	–	–
COc1ccc2nc(C)nc(NCc3ncc(C)o3)c2c1	–	1.39	23.5 mL/min/kg	296 mL/min/kg	–	–
CN(C)c1cncc(-c2ccc(S(=O)(=O)N(C)C)cc2)n1	–	0.61	80.8 mL/min/kg	2430 mL/min/kg	–	–
CCc1nc2cc(-c3c(OC)cccc3OC)ccc2o1	19 µg/mL (≈ 67.1 µM)	0.46	49.6 mL/min/kg	3760 mL/min/kg	–	–
Cc1ccc(S(=O)(=O)Cc2nc(-c3ccc(C(=O)NCc4cccnc4)cc3)oc2C)cc1	0.33 µg/mL (≈ 0.715 µM)	56.4	–	–	–	–
C=CCN(Cc1cccnc1)c1nc(C)nc2sccc12	45.5 µg/mL (≈ 154 µM)	0.798	188 mL/min/kg	1480 mL/min/kg	–	–
O=C(COCC1CC1)N1CCCc2ncccc21	33.9 µg/mL (≈ 138 µM)	0.825	13.8 mL/min/kg	68 mL/min/kg	–	–
Cc1cc2nc(Sc3nnc(C)n3C)c3ccccc3n2n1	–	11.3	≤ 4.74 mL/min/kg	35 mL/min/kg	–	–
Nc1cnc(Cc2ccc(F)cc2)nc1	38.2 µg/mL (≈ 188 µM)	0.67	≤ 4.74 mL/min/kg	15.4 mL/min/kg	–	–
CN1CCC(Cc2cccc(-c3nccs3)n2)C1 (configuration not stated)	–	1.16	43 mL/min/kg	2030 mL/min/kg	–	–
N#CC[C@H](C1CCCC1)n1cc(-c2ncnc3[nH]ccc23)cn1	34.5 µg/mL (≈ 113 µM)	10.9	–	405 mL/min/kg	0.0428	0.176
CC(C)(C)c1[nH]cnc1/C=c1\[nH]c(=O)/c(=C/c2ccccc2)[nH]c1=O	–	7.19	≤ 4.74 mL/min/kg	146 mL/min/kg	–	–
O=c1n(Cc2ccncc2)nc2n1-c1cc(Cl)ccc1C1=NCCN12	–	–	20 mL/min/kg	143 mL/min/kg	–	–
Cc1cc(N(C)C)nc(N(C)Cc2csc(C)n2)n1	47.4 µg/mL (≈ 171 µM)	0.632	30.6 mL/min/kg	681 mL/min/kg	–	–
CCOC(=O)CNC(=O)c1ccc(O)cc1O	36.2 µg/mL (≈ 151 µM)	0.704	34.3 mL/min/kg	114 mL/min/kg	–	–
Cc1nn(C)c(C)c1CNc1ccc(N2CCN(C)CC2)nc1	–	–	≤ 4.74 mL/min/kg	≤ 10.7 mL/min/kg	–	–
CSc1ccc(CN(CCO)C(=O)CCc2cccc(F)c2)cc1	29.1 µg/mL (≈ 83.6 µM)	0.961	151 mL/min/kg	2520 mL/min/kg	–	–

SMILES	aqueous solubility	MDR1-MDCK efflux ratio	intrinsic clearance, human liver microsomes	intrinsic clearance, rat liver microsomes	fraction unbound, human plasma	fraction unbound, rat plasma
c1cnc(NCc2cnc3ccsc3c2)nc1	–	0.589	12.5 mL/min/kg	52.9 mL/min/kg	–	–
COCCNc1c(C)c(C)nc2cc(-c3nccn3C)nn12	–	1.53	21.1 mL/min/kg	79.6 mL/min/kg	–	–
CC(C)Oc1cccc(C(C)NC(=O)c2ccnc(-n3cncn3)c2)c1 (configuration not stated)	–	1.81	70.8 mL/min/kg	258 mL/min/kg	–	–
O=c1c(-c2ccc(F)cc2)c(-c2ccncc2)[nH]n1-c1ccc(Cl)cc1	21.8 µg/mL (≈ 59.6 µM)	1.46	≤ 4.74 mL/min/kg	≤ 10.7 mL/min/kg	–	–
Cc1cc(C)cc(C(=O)Nc2c(C#N)cnn2C)c1	38.2 µg/mL (≈ 150 µM)	1.1	27.3 mL/min/kg	80.2 mL/min/kg	–	–
CCCS(=O)(=O)c1nc(NC2CC2)cc(-c2ccc3c(ccn3C3CC(C)(C)NC(C)(C)C3)c2)n1	–	34.9	51.1 mL/min/kg	123 mL/min/kg	–	–
O=C(c1noc2c1CCCC2)N1CCN(c2ncccn2)CC1	53.3 µg/mL (≈ 170 µM)	0.624	10.3 mL/min/kg	2910 mL/min/kg	–	–
CC(C)c1nc(O)c2nnn(C[C@@H]3CCCN(Cc4cccs4)C3)c2n1	49.1 µg/mL (≈ 132 µM)	22.3	32.1 mL/min/kg	999 mL/min/kg	–	–
Cc1nccc(NC(=O)CCc2ccncc2)c1Cl	–	0.826	≤ 4.74 mL/min/kg	73.1 mL/min/kg	–	–
CCc1nc(C)c(Cn2ccnc2-c2cnc(N3CCCC3)nc2)s1	35 µg/mL (≈ 98.9 µM)	4.25	31.9 mL/min/kg	548 mL/min/kg	–	–
CC1(COc2ccc3c(c2)ncn3-c2ccc3cccc(OS(=O)(=O)C(F)(F)F)c3n2)COC1	0.4 µg/mL (≈ 0.811 µM)	–	–	–	–	–
Clc1cccc(Nc2ncnc3[nH]ncc23)c1Cl	3.23 µg/mL (≈ 11.5 µM)	–	–	–	–	–
C#CCNC(=O)c1ccc2c(c1)OCO2	26 µg/mL (≈ 128 µM)	0.809	14 mL/min/kg	34.4 mL/min/kg	–	–
Cc1nc(NCCN2C(=O)CCC2=O)c2c(C)csc2n1	–	6.04	8.08 mL/min/kg	158 mL/min/kg	–	–
N#Cc1cnn(-c2nc(-c3ccc(Br)s3)cs2)c1N	1.9 µg/mL (≈ 5.39 µM)	–	–	–	–	–
CCCNC(=O)Nc1ccc(Oc2ncnc3cc(OC)c(OC)cc23)cc1Cl	0.22 µg/mL (≈ 0.528 µM)	6.08	–	–	–	–
COc1ccc(CCn2c(C3CC3)n[nH]c2=O)cc1	28.4 µg/mL (≈ 109 µM)	1	5.56 mL/min/kg	366 mL/min/kg	–	–

Next, values leading:

aqueous solubility	MDR1-MDCK efflux ratio	intrinsic clearance, human liver microsomes	intrinsic clearance, rat liver microsomes	fraction unbound, human plasma	fraction unbound, rat plasma	SMILES
69.8 µg/mL (≈ 206 µM)	–	–	–	–	–	O=C(c1ccco1)N1CCCC(C(=O)N2CCc3ccccc3C2)C1 (configuration not stated)
6.51 µg/mL (≈ 19.3 µM)	–	–	–	–	–	CC(C)c1cc(NC(=O)Cn2nc(-c3ccccc3)ccc2=O)[nH]n1
–	–	23.1 mL/min/kg	180 mL/min/kg	–	–	COCc1ncc(CN2CCC(Oc3ccccc3C)CC2)cn1
52.3 µg/mL (≈ 148 µM)	78.1	≤ 4.74 mL/min/kg	634 mL/min/kg	–	–	O=C(Cn1c(=O)c2cccn2c2ccccc21)NCCCN1CCCC1
61.7 µg/mL (≈ 142 µM)	33.7	206 mL/min/kg	1460 mL/min/kg	–	–	CNC(=O)c1sc2ncccc2c1[C@H]1CC[C@H](CNC(=O)CCc2ccccc2)CC1
57.3 µg/mL (≈ 159 µM)	1.03	165 mL/min/kg	1790 mL/min/kg	–	–	CN(C)c1nc(CN2CCOCC2)nc2scc(-c3cccs3)c12
11 µg/mL (≈ 26 µM)	0.872	58.3 mL/min/kg	545 mL/min/kg	–	–	Cc1c(C(=O)N2CCC(C(=O)Nc3ccc4c(c3)OCO4)CC2)oc2c(F)cccc12
–	–	163 mL/min/kg	1960 mL/min/kg	–	–	COc1ccc(OC)c(C(=O)/C=C/c2ccccc2)c1
83.8 µg/mL (≈ 199 µM)	4.87	183 mL/min/kg	1360 mL/min/kg	–	–	NC(=O)C1(Cc2ccc(-c3cccnc3)cc2)CCN(Cc2cccc(Cl)c2)CC1
–	0.712	–	4750 mL/min/kg	–	–	O=C(C1CCC1)N1CCC[C@H]1Cn1nnc(-c2cccs2)n1
–	2.07	7.42 mL/min/kg	308 mL/min/kg	–	–	CC1(CNC(=O)N2CCN(Cc3ccon3)CC2)CCCC1
–	0.848	28.6 mL/min/kg	95.3 mL/min/kg	–	–	CCc1cc(-c2ccc(OC)c3ncccc23)nc(N2CCOCC2)n1
–	24.3	33.8 mL/min/kg	389 mL/min/kg	–	–	O=C(Cc1cn2ccccc2n1)N1CCC(n2c(=O)[nH]c3ccccc32)CC1
0.84 µg/mL (≈ 2.9 µM)	–	–	–	–	–	O=C(c1cc(-c2ccccc2)[nH]n1)N1CCc2ccccc21
84.1 µg/mL (≈ 200 µM)	17.3	395 mL/min/kg	2390 mL/min/kg	0.0799	0.184	CN(C)C(=O)C1(Cc2ccccc2-c2ccccc2)CCN(C(=O)C2CCCO2)CC1 (configuration not stated)
28 µg/mL (≈ 79 µM)	0.731	341 mL/min/kg	1420 mL/min/kg	–	–	COCC1(c2nc(-c3ccncc3)nn2Cc2cccc(Cl)c2)CC1
–	2.29	601 mL/min/kg	2980 mL/min/kg	–	–	CN(CC(=O)Nc1cccc(S(=O)(=O)N2CCCC2)c1)C1CCCCC1
0.25 µg/mL (≈ 1.07 µM)	0.236	–	–	–	–	Nc1nc2c3ccccc3oc2c2ccccc12
70.2 µg/mL (≈ 178 µM)	51.4	185 mL/min/kg	473 mL/min/kg	–	–	CCN1C(=O)CC[C@H](C(=O)N2CCc3cc(F)cc(C)c3C2)[C@H]1c1ccncc1
62 µg/mL (≈ 180 µM)	2.76	≤ 4.74 mL/min/kg	126 mL/min/kg	–	–	Cn1cc(C2CCN(CC(=O)N3CCc4sccc4C3)CC2)cn1
–	1.29	≤ 4.74 mL/min/kg	589 mL/min/kg	–	–	CC(C)=CCOc1cccc(C(=O)NN2CCOCC2)c1
32.2 µg/mL (≈ 101 µM)	17	23.8 mL/min/kg	5470 mL/min/kg	–	–	Cc1cc(NCc2ccnc(N3CCCC3)c2)c2ccccc2n1
11.8 µg/mL (≈ 43.2 µM)	0.442	75.3 mL/min/kg	477 mL/min/kg	–	–	CN(Cc1cccc(C#N)c1)c1cnc2ccccc2n1
–	0.695	166 mL/min/kg	2290 mL/min/kg	–	–	Cc1ccc(Cl)c(OC[C@@]2(O)CN(C3CCC3)CC[C@@H]2O)c1
44.6 µg/mL (≈ 109 µM)	24.3	≤ 4.74 mL/min/kg	50.4 mL/min/kg	–	–	CC(C)c1cc(C(=O)N2Cc3ccc(CN4CCN(C)CC4)cc3C2)c(O)cc1O
